For 13 compounds, IC50 results are on record in patent US8609847B2, “Dihydroquinolinone derivatives” (Taisho Pharmaceutical Co., Ltd, priority 2009, dated 2013).

The target of the test is T1, human H3 receptor (Homo sapiens, UniProt Q9Y5N1).
T1 construct: purchased Perkin Elmer ES-392-M400UA; host or cells: CHO-K1 cells (recombinant expression), membrane preparation
T1 sequence (Q9Y5N1 whole entry): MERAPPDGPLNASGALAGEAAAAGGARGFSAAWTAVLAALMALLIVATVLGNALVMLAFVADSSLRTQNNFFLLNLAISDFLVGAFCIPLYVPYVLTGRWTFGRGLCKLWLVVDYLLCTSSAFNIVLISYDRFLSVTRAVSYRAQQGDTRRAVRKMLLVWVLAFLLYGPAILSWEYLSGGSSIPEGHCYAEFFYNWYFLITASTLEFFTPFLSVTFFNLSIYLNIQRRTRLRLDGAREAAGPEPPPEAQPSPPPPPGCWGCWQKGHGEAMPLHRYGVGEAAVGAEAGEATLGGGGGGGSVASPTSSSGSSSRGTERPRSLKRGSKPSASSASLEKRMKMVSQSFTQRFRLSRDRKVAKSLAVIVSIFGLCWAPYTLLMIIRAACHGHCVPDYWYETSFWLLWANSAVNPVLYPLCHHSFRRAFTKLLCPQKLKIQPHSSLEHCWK
As to the kind of experiment: H3 Receptor Binding Test. Conditions: 50% inhibition of R(−)-α-methyl[3H]histamine (1 nM) binding; membrane preparation of human H3 receptor-expressing CHO-K1 cells. The protocol:
A membrane preparation of human H3 receptor-expressing CHO-K1 cells (Perkin Elmer, ES-392-M400UA, 15 μg protein/200 μl), R(−)-α-methyl[^3H]histamine (Amersham, TRK-1017, specific activity: 1.74 TBq/mmol, 1 nM) and a test drug were reacted at room temperature for 1 hour. After completion of the reaction, the reaction mixture was subjected to suction filtration through a 0.3% polyethyleneimine-treated glass filter (GF/C). The glass filter was washed five times with 50 mM Tris-HCl washing solution (pH 7.4) containing 5 mM EDTA. After washing, the glass filter was dried and a scintillator was added thereto, followed by measurement of radioactivity on the filter using a liquid scintillation counter.
Binding of R(−)-α-methyl[^3H]histamine in the presence of 10 μM R(−)-α-methylhistamine was defined as non-specific binding, and the difference between total binding and non-specific binding of R(−)-α-methyl[^3H]histamine was defined as specific binding of R(−)-α-methyl[^3H]histamine. A fixed concentration (1 nM) of R(−)-α-methyl[^3H]histamine was reacted under the above conditions with each test drug at various concentrations to obtain an inhibition curve. The inhibition curve was used to determine the concentration (IC50) of each test drug required for 50% inhibition of R(−)-α-methyl[^3H]histamine binding.
Turning to `N#Cc1cccc(N2C(=O)CCc3cc(OC4CCN(C5CCC5)CC4)ccc32)c1` [Compound No. 74, 3-{6-[(1-cyclobutylpiperidin-4-yl)oxy]-2-oxo-3,4-dihydroquinolin-1(2H)-yl}benzonitrile], the IC50 – broadly, the concentration that gives 50% inhibition – is 1.3 nM.

Consider `CC(C)N1CCC(Oc2ccc3c(c2)CCC(=O)N3c2ccc(F)cc2)CC1` [Compound No. 75, 1-(4-fluorophenyl)-6-{[1-(propan-2-yl)piperidin-4-yl]oxy}-3,4-dihydroquinolin-2(1H)-one], for which the IC50 turned out to be 1.4 nM.

Turning to `O=C1CCc2cc(OC3CCN(CC4CC4)CC3)ccc2N1c1ccc(F)cc1` [Compound No. 76, 6-{[1-(cyclopropylmethyl)piperidin-4-yl]oxy}-1-(4-fluorophenyl)-3,4-dihydroquinolin-2(1H)-one], the IC50 was found to be 9.8 nM.

For the compound `O=C1CCc2cc(OC3CCN(C4CC4)CC3)ccc2N1c1ccc(F)cc1` [Compound No. 77, 6-[(1-cyclopropylpiperidin-4-yl)oxy]-1-(4-fluorophenyl)-3,4-dihydroquinolin-2(1H)-one], the half-maximal inhibitory concentration (IC50) is 2.1 nM.

Regarding `O=C1CCc2cc(OCCCN3CCCC3)ccc2N1c1ccc(F)cc1` [Compound No. 78, 1-(4-fluorophenyl)-6-[3-(pyrrolidin-1-yl)propoxy]-3,4-dihydroquinolin-2(1H)-one], the IC50 was 13 nM.

Take `O=C1CCc2cc(OCCCN3CCCC3)ccc2N1c1cccc(F)c1` [Compound No. 79, 1-(3-fluorophenyl)-6-[3-(pyrrolidin-1-yl)propoxy]-3,4-dihydroquinolin-2(1H)-one]: the IC50 was 17 nM.

For the compound `O=C1CCc2cc(OCCCN3CCCC3)ccc2N1c1cc(F)cc(F)c1` [Compound No. 80, 1-(3,5-difluorophenyl)-6-[3-(pyrrolidin-1-yl)propoxy]-3,4-dihydroquinolin-2(1H)-one], the IC50 stood at 22 nM.

Consider `O=C1CCc2cc(OCCCN3CCCC3)ccc2N1c1ccc(F)c(F)c1` [Compound No. 81, 1-(3,4-difluorophenyl)-6-[3-(pyrrolidin-1-yl)propoxy]-3,4-dihydroquinolin-2(1H)-one], for which the IC50 worked out at 18 nM.

Turning to `O=C1CCc2cc(OCCCN3CCCCC3)ccc2N1c1ccc(F)cc1` [Compound No. 82, 1-(4-fluorophenyl)-6-[3-(piperidin-1-yl)propoxy]-3,4-dihydroquinolin-2(1H)-one], the IC50 was determined as 9.1 nM.

Consider `CCN(CC)CCCOc1ccc2c(c1)CCC(=O)N2c1ccc(F)cc1` [Compound No. 83, 6-[3-(diethylamino)propoxy]-1-(4-fluorophenyl)-3,4-dihydroquinolin-2(1H)-one], for which the IC50 was 13 nM.

With `C[C@@H]1CC[C@@H](C)N1CCCOc1ccc2c(c1)CCC(=O)N2c1ccc(F)cc1` [Compound No. 84, 6-{3-[(2R,5R)-2,5-dimethylpyrrolidin-1-yl]propoxy}-1-(4-fluorophenyl)-3,4-dihydroquinolin-2(1H)-one], the IC50 was determined as 5 nM.

With `C[C@@H]1CCCN1CCCOc1cc(Cl)c2c(c1)CCC(=O)N2c1ccc(F)cc1` [Compound No. 85, 8-chloro-1-(4-fluorophenyl)-6-{3-[(2R)-2-methylpyrrolidin-1-yl]propoxy}-3,4-dihydroquinolin-2(1H)-one], the IC50 came to 11 nM.

Consider `Cc1cc(OCCCN2CCC[C@H]2C)cc2c1N(c1ccc(F)cc1)C(=O)CC2` [Compound No. 86, 1-(4-fluorophenyl)-8-methyl-6-{3-[(2R)-2-methylpyrrolidin-1-yl]propoxy}-3,4-dihydroquinolin-2(1H)-one], for which the IC50 came to 12 nM.
